Laboratory results published in ChEMBL document CHEMBL5252515, “Discovery of 6-Amino-2-{[(1S)-1-methylbutyl]oxy}-9-[5-(1-piperidinyl)pentyl]-7,9-dihydro-8H-purin-8-one (GSK2245035), a Highly Potent and Selective Intranasal Toll-Like Receptor 7 Agonist for the Treatment of Asthma” (J Med Chem, 2016).
Calls of active or inactive are those of the source. No cut-off for these calls is given here.

Experiments:
Mus musculus [1] = experiment: Increase in IP-10 level in BALB/c mouse serum at 0.1 mg/kg, administered intranasally after 2 hrs by ELISA; assay type: functional, organism-based
Toll-like receptor 7 = biological target: T1, Toll-like receptor 7 (Homo sapiens, UniProt Q9NYK1); experiment: Agonist activity at TLR7 in human whole blood assessed as induction of IFNalpha production after 20 hrs by electrochemiluminescence assay; assay type: tissue-based
T1 sequence (Q9NYK1 whole entry): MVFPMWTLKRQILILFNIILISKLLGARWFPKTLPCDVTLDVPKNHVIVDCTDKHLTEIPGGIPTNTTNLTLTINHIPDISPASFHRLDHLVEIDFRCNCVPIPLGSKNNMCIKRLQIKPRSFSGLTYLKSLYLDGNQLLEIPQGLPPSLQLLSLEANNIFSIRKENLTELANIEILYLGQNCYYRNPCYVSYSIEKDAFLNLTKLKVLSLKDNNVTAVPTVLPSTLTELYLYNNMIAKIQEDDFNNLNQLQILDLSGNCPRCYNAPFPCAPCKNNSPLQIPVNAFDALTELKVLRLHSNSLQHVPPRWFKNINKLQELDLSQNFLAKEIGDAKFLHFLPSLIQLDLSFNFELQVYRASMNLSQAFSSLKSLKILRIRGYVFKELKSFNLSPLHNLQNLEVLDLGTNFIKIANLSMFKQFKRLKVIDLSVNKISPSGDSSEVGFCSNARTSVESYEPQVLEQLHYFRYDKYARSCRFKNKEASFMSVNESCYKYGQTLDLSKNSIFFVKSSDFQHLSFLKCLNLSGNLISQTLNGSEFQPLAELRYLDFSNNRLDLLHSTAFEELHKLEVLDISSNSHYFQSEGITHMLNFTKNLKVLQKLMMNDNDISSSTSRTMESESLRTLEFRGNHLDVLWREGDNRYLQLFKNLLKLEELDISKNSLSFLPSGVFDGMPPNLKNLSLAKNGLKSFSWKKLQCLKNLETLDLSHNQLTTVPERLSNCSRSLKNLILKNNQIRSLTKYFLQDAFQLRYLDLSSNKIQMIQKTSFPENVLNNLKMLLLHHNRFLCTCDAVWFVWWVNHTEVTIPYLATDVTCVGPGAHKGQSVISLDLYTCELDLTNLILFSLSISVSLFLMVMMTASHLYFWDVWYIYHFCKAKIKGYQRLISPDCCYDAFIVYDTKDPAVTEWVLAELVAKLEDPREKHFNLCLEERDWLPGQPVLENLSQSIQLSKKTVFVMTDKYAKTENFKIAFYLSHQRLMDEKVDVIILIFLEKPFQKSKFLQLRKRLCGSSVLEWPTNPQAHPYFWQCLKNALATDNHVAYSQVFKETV

Mus musculus [2] = experiment: Increase in IP-10 level in intranasally dosed BALB/c mouse nasal lavage after 6 hrs; assay type: functional, organism-based
[3] = Ocular toxicity in monkey assessed as aqueous cells and aqueous flare at 1000 ug/ml, post single dose administration after 6 hrs; set-up: species or system Macaca mulatta; settings: rhesus monkey, in vivo, dose 1000 µg/ml
[4] = Toxicity in male rat assessed as NOAEL after 14 days; settings: in vivo, time 14 day
[5] = biological target: T2, Toll-like receptor 7 (Macaca fascicularis) (UniProt B3Y652); experiment: In vivo target occupancy at TLR7 in cynomolgus monkey assessed as fold increase in GBP1 mRNA expression in nasal scrape at 3 ng/kg administered intranasally incubated for 24 hrs by TaqMan analysis (reference value: 2.4); assay type: functional
T2 sequence (whole entry): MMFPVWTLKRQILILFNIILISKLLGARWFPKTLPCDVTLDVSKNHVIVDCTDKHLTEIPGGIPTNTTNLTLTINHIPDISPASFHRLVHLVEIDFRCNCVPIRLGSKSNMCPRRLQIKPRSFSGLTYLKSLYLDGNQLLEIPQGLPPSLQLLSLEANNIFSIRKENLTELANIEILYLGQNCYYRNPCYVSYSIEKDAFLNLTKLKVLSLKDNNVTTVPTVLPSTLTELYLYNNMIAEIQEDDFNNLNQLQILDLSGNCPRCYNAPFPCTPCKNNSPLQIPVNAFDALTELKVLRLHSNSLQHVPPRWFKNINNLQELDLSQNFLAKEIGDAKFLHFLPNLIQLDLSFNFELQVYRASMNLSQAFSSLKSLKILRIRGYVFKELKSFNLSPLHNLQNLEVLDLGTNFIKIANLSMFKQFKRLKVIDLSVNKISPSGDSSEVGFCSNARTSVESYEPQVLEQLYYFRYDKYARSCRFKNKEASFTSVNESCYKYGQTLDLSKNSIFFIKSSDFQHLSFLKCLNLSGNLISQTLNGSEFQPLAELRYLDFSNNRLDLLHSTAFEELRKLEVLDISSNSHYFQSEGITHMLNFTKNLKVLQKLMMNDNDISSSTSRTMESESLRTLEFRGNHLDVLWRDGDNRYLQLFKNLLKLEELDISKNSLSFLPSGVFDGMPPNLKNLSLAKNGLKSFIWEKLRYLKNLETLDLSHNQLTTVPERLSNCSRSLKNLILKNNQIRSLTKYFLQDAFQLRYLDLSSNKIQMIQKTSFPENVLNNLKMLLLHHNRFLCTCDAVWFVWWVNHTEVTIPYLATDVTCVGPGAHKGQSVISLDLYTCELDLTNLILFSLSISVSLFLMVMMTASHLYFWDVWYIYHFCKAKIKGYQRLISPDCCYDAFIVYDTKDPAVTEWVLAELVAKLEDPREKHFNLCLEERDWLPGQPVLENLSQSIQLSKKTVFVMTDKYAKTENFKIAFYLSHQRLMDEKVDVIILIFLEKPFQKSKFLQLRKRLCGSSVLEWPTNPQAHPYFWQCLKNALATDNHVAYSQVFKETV

[6] = Systemic clearance in rat; assay type: ADME; settings: in vivo
PBMC = experiment: Immunomodulatory activity in human PBMC assessed as IFNalpha production incubated for 6 days in presence of allergen timothy grass; assay type: functional, cell-based; settings: time 6.0 day
[7] = Bioavailability in rat after intranasal administration; assay type: ADME, organism-based; settings: in vivo, inhaled or intranasal

- EC50 (Toll-like receptor 7): 0.891 nM
- fold change (FC) [5]: 68.5
- clearance [6]: 96 mL/min/kg
- bioavailability [7]: 12%
SMILES: CCC[C@H](C)Oc1nc(N)c2[nH]c(=O)n(CCCCCN3CCCCC3)c2n1 [GSK-2245035]
- Activity (Mus musculus [1]): Active
- Activity (Mus musculus [2]): Active
- Activity [3]: Toxic
- NOAEL at 336 h [4]: 0.453 mg/kg/day
- Activity (PBMC): Active
